How the values were obtained:
[1] = system: Tyrosine-protein kinase ABL1 (Homo sapiens), P00519 [E255K]; settings: Compound concentration 1000.0 nM
[2] = system: Tyrosine-protein kinase ABL1 (Homo sapiens), P00519 [T315I]; settings: Compound concentration 1000.0 nM
[3] = target: Serine/threonine-protein kinase BRSK1 (Homo sapiens) (UniProt Q8TDC3); settings: Compound concentration 1000.0 nM
[4] = target: Cyclin-dependent kinase 7 (Homo sapiens) (UniProt P50613); settings: Compound concentration 1000.0 nM
Chain of Cyclin-dependent kinase 7 (Homo sapiens) (P50613 whole entry): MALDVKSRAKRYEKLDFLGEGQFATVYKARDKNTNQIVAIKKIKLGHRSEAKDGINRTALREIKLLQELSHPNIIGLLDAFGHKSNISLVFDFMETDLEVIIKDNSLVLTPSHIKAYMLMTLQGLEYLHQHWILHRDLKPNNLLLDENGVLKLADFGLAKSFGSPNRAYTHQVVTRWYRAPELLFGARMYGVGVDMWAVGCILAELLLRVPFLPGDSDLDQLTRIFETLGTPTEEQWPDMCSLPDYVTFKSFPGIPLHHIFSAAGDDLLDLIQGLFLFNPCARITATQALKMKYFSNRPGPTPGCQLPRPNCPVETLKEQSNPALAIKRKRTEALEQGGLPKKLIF

[5] = target: Cyclin-dependent kinase 9 (Homo sapiens) (UniProt P50750); settings: Compound concentration 1000.0 nM
Chain of Cyclin-dependent kinase 9 (Homo sapiens) (P50750 whole entry, canonical isoform): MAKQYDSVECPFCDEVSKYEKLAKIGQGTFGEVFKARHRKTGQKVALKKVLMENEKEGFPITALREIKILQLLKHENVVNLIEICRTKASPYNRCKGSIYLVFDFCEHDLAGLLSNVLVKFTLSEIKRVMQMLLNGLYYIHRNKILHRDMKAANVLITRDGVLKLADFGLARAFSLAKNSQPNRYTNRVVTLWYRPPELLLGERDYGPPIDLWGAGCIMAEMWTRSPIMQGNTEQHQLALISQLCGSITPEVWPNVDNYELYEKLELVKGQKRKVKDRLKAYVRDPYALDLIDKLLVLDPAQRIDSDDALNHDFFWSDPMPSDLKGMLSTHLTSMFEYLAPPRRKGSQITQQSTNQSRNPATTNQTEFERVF

[6] = target: Casein kinase I isoform gamma-1 (Homo sapiens) (UniProt Q9HCP0); settings: Compound concentration 1000.0 nM
Chain of Casein kinase I isoform gamma-1 (Homo sapiens) (Q9HCP0 whole entry, looked up, canonical isoform): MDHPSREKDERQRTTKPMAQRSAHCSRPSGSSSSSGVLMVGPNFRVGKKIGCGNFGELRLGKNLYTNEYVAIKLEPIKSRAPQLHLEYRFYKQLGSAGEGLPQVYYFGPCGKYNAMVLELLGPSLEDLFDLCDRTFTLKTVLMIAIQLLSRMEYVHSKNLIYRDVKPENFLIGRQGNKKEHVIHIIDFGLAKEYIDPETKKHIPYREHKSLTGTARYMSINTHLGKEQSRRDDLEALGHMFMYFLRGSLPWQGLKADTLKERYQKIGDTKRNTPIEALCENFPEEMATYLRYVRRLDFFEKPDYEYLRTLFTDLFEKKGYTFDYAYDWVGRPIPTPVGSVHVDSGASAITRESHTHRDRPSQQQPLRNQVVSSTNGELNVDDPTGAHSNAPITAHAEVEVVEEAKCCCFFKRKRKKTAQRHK

[7] = system: Epidermal growth factor receptor (Homo sapiens), P00533 [UNDEFINED MUTATION]; settings: Compound concentration 1000.0 nM
[8] = target: Ephrin type-A receptor 6 (Homo sapiens) (UniProt Q9UF33); settings: Compound concentration 1000.0 nM
[9] = target: Receptor tyrosine-protein kinase erbB-3 (Homo sapiens) (UniProt P21860); settings: Compound concentration 1000.0 nM
[10] = target: Mitogen-activated protein kinase 6 (Homo sapiens) (UniProt Q16659); settings: Compound concentration 1000.0 nM
[11] = target: Mitogen-activated protein kinase 7 (Homo sapiens) (UniProt Q13164); settings: Compound concentration 1000.0 nM
Chain of Mitogen-activated protein kinase 7 (Homo sapiens) (Q13164 2-816 limits assumed): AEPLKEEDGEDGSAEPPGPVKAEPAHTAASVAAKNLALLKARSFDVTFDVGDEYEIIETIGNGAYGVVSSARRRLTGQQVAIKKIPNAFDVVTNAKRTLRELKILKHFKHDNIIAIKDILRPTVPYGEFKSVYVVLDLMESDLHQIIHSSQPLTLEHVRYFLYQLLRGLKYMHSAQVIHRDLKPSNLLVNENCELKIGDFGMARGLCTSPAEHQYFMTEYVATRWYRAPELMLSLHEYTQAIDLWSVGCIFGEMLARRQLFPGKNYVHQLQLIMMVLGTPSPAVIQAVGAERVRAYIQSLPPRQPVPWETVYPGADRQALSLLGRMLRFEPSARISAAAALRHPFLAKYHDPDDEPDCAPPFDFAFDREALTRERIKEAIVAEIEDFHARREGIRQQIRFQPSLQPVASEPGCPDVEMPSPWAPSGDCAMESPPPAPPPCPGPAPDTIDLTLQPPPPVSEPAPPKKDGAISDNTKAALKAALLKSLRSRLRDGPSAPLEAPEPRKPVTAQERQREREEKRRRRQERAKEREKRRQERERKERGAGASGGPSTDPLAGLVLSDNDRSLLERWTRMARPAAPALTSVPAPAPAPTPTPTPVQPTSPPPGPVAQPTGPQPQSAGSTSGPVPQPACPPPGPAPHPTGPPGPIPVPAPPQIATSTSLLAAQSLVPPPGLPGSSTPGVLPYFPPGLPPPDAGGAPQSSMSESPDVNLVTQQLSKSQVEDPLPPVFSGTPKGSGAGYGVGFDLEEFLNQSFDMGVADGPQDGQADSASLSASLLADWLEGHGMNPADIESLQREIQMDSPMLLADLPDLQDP

[12] = target: Fibroblast growth factor receptor 3 (Homo sapiens) (UniProt P22607); settings: Compound concentration 1000.0 nM
Chain of Fibroblast growth factor receptor 3 (Homo sapiens) (P22607 23-806 limits assumed): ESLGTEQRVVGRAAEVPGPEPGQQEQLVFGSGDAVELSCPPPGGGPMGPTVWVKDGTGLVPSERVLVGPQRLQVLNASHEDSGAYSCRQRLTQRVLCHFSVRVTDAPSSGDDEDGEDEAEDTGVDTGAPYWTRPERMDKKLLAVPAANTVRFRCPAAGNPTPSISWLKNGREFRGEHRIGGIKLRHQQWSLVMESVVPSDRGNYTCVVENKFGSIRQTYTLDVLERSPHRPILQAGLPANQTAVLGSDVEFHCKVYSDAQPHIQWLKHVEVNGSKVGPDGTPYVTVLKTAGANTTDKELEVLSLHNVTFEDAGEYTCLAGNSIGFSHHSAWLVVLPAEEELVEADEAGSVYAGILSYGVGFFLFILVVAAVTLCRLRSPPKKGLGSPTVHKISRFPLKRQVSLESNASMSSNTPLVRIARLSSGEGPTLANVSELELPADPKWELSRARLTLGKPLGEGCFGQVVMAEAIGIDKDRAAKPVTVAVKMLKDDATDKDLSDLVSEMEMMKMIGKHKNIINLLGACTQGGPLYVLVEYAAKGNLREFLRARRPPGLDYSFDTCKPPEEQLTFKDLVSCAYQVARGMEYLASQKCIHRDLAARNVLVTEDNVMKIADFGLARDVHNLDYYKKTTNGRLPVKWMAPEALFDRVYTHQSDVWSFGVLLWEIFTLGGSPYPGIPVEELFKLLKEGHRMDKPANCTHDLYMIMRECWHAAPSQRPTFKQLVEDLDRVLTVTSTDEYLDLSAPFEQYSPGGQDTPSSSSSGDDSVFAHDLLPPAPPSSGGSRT

[13] = target: Fibroblast growth factor receptor 4 (Homo sapiens) (UniProt P22455); settings: Compound concentration 1000.0 nM
[14] = target: Vascular endothelial growth factor receptor 1 (Homo sapiens) (UniProt P17948); settings: Compound concentration 1000.0 nM
[15] = system: Receptor-type tyrosine-protein kinase FLT3 (Homo sapiens), P36888 [UNDEFINED MUTATION]; settings: Compound concentration 1000.0 nM
[16] = target: Glycogen synthase kinase-3 beta (Homo sapiens) (UniProt P49841); settings: Compound concentration 1000.0 nM
[17] = target: Interleukin-1 receptor-associated kinase 4 (Homo sapiens) (UniProt Q9NWZ3); settings: Compound concentration 1000.0 nM
[18] = system: Mast/stem cell growth factor receptor Kit (Homo sapiens), P10721 [D816V]; settings: Compound concentration 1000.0 nM
[19] = target: Mitogen-activated protein kinase kinase kinase 1 (Homo sapiens) (UniProt Q13233); settings: Compound concentration 1000.0 nM
[20] = target: Mitogen-activated protein kinase kinase kinase 15 (Homo sapiens) (UniProt Q6ZN16); settings: Compound concentration 1000.0 nM
[21] = target: Mitogen-activated protein kinase kinase kinase 2 (Homo sapiens) (UniProt Q9Y2U5); settings: Compound concentration 1000.0 nM
[22] = target: Serine/threonine-protein kinase MARK1 (Homo sapiens) (UniProt Q9P0L2); settings: Compound concentration 1000.0 nM
Chain of Serine/threonine-protein kinase MARK1 (Homo sapiens) (Q9P0L2 whole entry, looked up): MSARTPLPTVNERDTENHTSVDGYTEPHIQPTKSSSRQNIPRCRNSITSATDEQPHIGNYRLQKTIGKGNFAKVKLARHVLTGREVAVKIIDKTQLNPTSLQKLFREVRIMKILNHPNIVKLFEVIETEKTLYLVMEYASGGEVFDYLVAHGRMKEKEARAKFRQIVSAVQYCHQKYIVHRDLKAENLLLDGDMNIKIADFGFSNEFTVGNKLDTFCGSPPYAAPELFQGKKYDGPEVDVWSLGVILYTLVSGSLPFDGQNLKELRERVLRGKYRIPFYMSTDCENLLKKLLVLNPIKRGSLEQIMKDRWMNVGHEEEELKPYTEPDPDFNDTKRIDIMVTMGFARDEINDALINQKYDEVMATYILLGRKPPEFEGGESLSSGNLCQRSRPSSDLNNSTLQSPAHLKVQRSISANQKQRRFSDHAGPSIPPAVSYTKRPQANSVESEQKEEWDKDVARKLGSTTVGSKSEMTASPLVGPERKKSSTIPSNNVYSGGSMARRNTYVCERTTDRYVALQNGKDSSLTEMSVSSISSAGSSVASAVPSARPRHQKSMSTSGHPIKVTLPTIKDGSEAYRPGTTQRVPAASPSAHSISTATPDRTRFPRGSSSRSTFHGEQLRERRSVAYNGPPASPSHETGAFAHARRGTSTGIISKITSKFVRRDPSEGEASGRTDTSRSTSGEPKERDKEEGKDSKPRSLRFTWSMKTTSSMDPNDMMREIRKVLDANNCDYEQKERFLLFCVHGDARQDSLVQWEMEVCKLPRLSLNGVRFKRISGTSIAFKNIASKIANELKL

[23] = target: Serine/threonine-protein kinase 3 (Homo sapiens) (UniProt Q13188); settings: Compound concentration 1000.0 nM
[24] = target: Serine/threonine-protein kinase Nek7 (Homo sapiens) (UniProt Q8TDX7); settings: Compound concentration 1000.0 nM
Chain of Serine/threonine-protein kinase Nek7 (Homo sapiens) (Q8TDX7 whole entry, looked up): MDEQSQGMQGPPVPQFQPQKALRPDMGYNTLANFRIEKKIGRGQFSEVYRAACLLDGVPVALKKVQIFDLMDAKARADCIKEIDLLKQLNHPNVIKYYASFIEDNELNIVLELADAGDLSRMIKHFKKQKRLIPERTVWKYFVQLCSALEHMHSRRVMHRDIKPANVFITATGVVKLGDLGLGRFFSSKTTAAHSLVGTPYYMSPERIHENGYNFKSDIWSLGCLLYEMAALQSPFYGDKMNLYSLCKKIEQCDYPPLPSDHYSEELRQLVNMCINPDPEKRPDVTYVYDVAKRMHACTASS

[25] = target: Serine/threonine-protein kinase Nek9 (Homo sapiens) (UniProt Q8TD19); settings: Compound concentration 1000.0 nM
[26] = target: Platelet-derived growth factor receptor alpha (Homo sapiens) (UniProt P16234); settings: Compound concentration 1000.0 nM
[27] = target: 3-phosphoinositide-dependent protein kinase 1 (Homo sapiens) (UniProt O15530); settings: Compound concentration 1000.0 nM
[28] = target: Serine/threonine-protein kinase N2 (Homo sapiens) (UniProt Q16513); settings: Compound concentration 1000.0 nM
[29] = target: Serine/threonine-protein kinase PLK4 (Homo sapiens) (UniProt O00444); settings: Compound concentration 1000.0 nM
[30] = target: Protein kinase C eta type (Homo sapiens) (UniProt P24723); settings: Compound concentration 1000.0 nM
Chain of Protein kinase C eta type (Homo sapiens) (P24723 whole entry): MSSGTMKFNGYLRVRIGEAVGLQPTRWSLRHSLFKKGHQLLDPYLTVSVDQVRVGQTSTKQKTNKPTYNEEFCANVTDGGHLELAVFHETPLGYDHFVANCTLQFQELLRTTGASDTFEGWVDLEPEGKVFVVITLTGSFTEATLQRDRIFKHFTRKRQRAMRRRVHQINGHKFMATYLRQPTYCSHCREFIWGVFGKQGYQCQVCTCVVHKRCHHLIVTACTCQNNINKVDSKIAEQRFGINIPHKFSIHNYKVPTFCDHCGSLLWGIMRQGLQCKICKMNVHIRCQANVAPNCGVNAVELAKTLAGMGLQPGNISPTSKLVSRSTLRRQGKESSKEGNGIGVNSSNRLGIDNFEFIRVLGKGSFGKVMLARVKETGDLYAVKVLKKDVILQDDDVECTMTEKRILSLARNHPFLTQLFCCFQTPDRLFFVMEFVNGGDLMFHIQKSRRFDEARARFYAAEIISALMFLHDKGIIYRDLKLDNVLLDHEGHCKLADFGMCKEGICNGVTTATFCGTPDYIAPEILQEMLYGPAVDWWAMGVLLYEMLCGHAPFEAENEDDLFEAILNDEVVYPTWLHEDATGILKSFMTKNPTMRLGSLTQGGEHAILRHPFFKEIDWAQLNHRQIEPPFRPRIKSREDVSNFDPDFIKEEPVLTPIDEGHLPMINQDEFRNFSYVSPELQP

[31] = target: Serine/threonine-protein kinase D2 (Homo sapiens) (UniProt Q9BZL6); settings: Compound concentration 1000.0 nM
[32] = target: Serine/threonine-protein kinase PRP4 homolog (Homo sapiens) (UniProt Q13523); settings: Compound concentration 1000.0 nM
[33] = target: Serine/threonine-protein kinase SIK3 (Homo sapiens) (UniProt Q9Y2K2); settings: Compound concentration 1000.0 nM
[34] = target: RAF proto-oncogene serine/threonine-protein kinase (Homo sapiens) (UniProt P04049); settings: Compound concentration 1000.0 nM
[35] = target: Serine/threonine-protein kinase RIO2 (Homo sapiens) (UniProt Q9BVS4); settings: Compound concentration 1000.0 nM
[36] = target: Serine/threonine-protein kinase TAO1 (Homo sapiens) (UniProt Q7L7X3); settings: Compound concentration 1000.0 nM
[37] = target: 5-hydroxytryptamine receptor 1A (Homo sapiens, UniProt P08908); test: GPCRScan assay: inhibition of 5-HT1A; set-up: radioligand conc. used [nm] 0.5 – 1.0, parental cells stable CHO
[38] = target: 5-hydroxytryptamine receptor 1B (Homo sapiens, UniProt P28222); test: GPCRScan assay: inhibition of 5-HT1B; set-up: radioligand conc. used [nm] 0.6 – 1.5, parental cells stable HEK
Chain of 5-hydroxytryptamine receptor 1B (P28222 whole entry): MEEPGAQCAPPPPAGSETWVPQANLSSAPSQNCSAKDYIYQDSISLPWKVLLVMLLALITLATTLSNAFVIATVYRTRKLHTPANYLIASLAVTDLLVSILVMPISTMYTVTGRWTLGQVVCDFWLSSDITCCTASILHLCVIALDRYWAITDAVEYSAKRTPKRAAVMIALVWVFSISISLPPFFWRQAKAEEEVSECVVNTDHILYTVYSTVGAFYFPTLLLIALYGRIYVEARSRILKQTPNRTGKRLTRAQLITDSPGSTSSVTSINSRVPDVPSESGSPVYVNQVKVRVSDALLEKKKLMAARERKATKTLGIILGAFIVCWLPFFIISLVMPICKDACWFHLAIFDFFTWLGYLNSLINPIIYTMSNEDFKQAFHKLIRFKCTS

For O=S(=O)(NC1CCC(c2cc(F)ccc2F)(S(=O)(=O)c2ccc(Cl)cc2)CC1)C(F)(F)F (stereo not drawn) [MRK-560], the residual activity [1] was 100%, the residual activity [2] was 85% and the residual activity [3] was 92%. It also gave a residual activity [4] of 100%, a residual activity [5] of 91% and a residual activity [6] of 86%. The residual activity [7] was 100%, the residual activity [8] was 100% and the residual activity [9] was 93%. It also gave a residual activity [10] of 100%, a residual activity [11] of 92% and a residual activity [12] of 90%. For the same compound, the residual activity [13] was 100%, the residual activity [14] was 86% and the residual activity [15] was 91%. The residual activity [16] was 100%, the residual activity [17] was 97% and the residual activity [18] was 92%. The residual activity [19] was 100%, the residual activity [20] was 78% and the residual activity [21] was 98%. The residual activity [22] was 100%, the residual activity [23] was 100% and the residual activity [24] was 100%. The residual activity [25] was 100%, the residual activity [26] was 100% and the residual activity [27] was 100%. It also gave a residual activity [28] of 100%, a residual activity [29] of 100% and a residual activity [30] of 99%. It also gave a residual activity [31] of 79%, a residual activity [32] of 100% and a residual activity [33] of 100%. It also gave a residual activity [34] of 100%, a residual activity [35] of 82% and a residual activity [36] of 100%.
Compound CC(C)(C)OC(=O)N1CCCC1CNC1CCC(c2cc(F)ccc2F)(S(=O)(=O)c2ccc(Cl)cc2)CC1 (stereo not drawn) [GSI-NC] has a Ki [37] of 2.77 µM and a Ki [38] of 0.946 µM.

Reference: ChEMBL document CHEMBL4507288 (2021)
